Converted amounts (≈) assume the structure as drawn. Like-named read-outs stand apart in the source and are kept apart here.
Assays:
[1] = system: NCI-H1048 cells; assay: NCI-H1048 cell proliferation assay (CTG assay); format: cell-based; conditions: Homo sapiens, 120 hours, read-out: CTG cellular assay_H1048: IC50
In short: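 NCI-H1048 small cell lung cancer cells (RPMI-1640, 10% FBS) were exposed to 10-point half-log compound dilutions from 10 μM to 0.316 nM for 120 h at 37° C., 5% CO2. Viability was read by CellTiter-Glo luminescence and normalized to DMSO as percent of control. EC50 and DC50 were fitted with a four-parameter logistic model.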

[2] = Determination of kinetic solubility; format: physicochemical; conditions: PBS, aqueous buffer, kinetic from dmso stock, shaking at 25° C. for 2 hours
Protocol: An aliquot of 30 μL stock solution (10 mM) was placed in order into their proper 96-well rack. 970 μL of PBS was added into each vial of the cap-less solubility sample plate. The assay was performed in duplicate. In each vial, a stir stick was added and sealed with a molded PTFE/Silicone plug. […] Plugs were removed after 2 hours and the stir sticks were removed using a big magnet. Then the samples were transferred from the solubility sample plate into the filter plate. All the samples were filtered using the vacuum manifold. An aliquot of 5 μL filtrate was mixed with 5 μL DMSO and 490 μL of a mixture of H2O and acetonitrile (v:v, 1:1) containing internal standard. A certain proportion of ultrapure water was used to dilute according to the peak shape. The dilution factor was changed according to the solubility values and the LC-MS/MS signals.
An aliquot of 6 μL stock solution (10 mM in DMSO) was transferred from standard (STD) stock plate into a new plate, and then 194 μL of DMSO was added to get a STD working solution of 300 μM. Then 5 μL of 300 μM working solution was mixed with 5 μL of DMSO and 490 μL of a mixture of H2O and acetonitrile (v:v, 1:1) containing internal standard and the final STD concentration was 3 μM. The STD concentration were changed according to the LC-MS/MS signals.
The sample plate was put into the autosampler and the test compound concentration was determined by LC-MS/MS.

[3] = Pharmacokinetic study in mice (IV and PO); format: in vivo; conditions: male CD1 mice; for F: PO (10 mg/kg) vs IV (2 mg/kg); for AUC(0-inf) / clearance / half-life / Cmax: mouse, plasma; for half-life: read-out: T½ (converted)
Protocol: Objective: the objective of this study was to determine the pharmacokinetics of test compound following intravenous (IV) and oral (PO) administration to male CD1 mice.
Materials: Male CD1 mouse (20-30 g, 6-8 weeks, Zhejiang Vital River Laboratory Animal Technology Co., Ltd.).
The CD1 mice were administered with the test article intravenously via tail vein at 2 mg/kg or orally at 10 mg/kg. The animals had free access to food and water. After dose administration, blood was collected from the dorsal metatarsal vein at 5 min (0.0833 h, IV only), 15 min (0.25 h), 30 min (0.5 h), 60 min (1 h), 2 h, 4 h, 6 h, 8 h and 24 h. Blood samples were placed in an anticoagulant tube with EDTA-K2, mixed adequately and centrifuged at 4° C., 4000 g for 5 minutes to get the plasma. The plasma samples were stored at −75±15° C. until analyzed by LC-MS/MS. The PK parameters were calculated using non-compartmental model by Phoenix WinNonlin 6.1 (Linear/log trapezoidal).

[4] = Permeability study in MDCKII cells (bidirectional A to B and B to A); format: in vitro ADME, Canine; conditions: dog, MDCK; for efflux ratio at 120 min, 1 μM: pH 7.4; for Papp A→B at 120 min, 1 μM / Papp B→A at 120 min, 1 μM: pH 7.4, 120 minutes; for Papp A→B at 120 min, 1 μM: apical to basolateral; for Papp B→A at 120 min, 1 μM: basolateral to apical
Protocol: MDCKII (Madin-Darby Canine Kidney cell line, wild type) cell was obtained from the Netherlands Cancer Institute, which was used for P-gp substrates or inhibitors screening and predicting the permeability of compounds with high efflux barriers such as duodenum, blood-brain barrier, hepatocyte nucleus and renal unit. The MDCKII cells with 10 to 22 passages were used for the permeability investigation.
MDCKII cells were cultured using Minimum Essential Media (MEM) at 37° C., 5% CO2 and 95% relative humidity. The cells were seeded in Transwell plate with 5.45×10^5 cells/cm^2. Then the cells were incubated in CO2 Incubator for 4-7 days for transport studies.
The complete medium was prepared by adding 10% FBS (fetal bovine serum) and 1% glutamax-1 to 500 ml MEM.
The dose concentrations of test compounds and control compounds were 1 μM. The bidirectional (A to B and B to A) permeability was evaluated. All incubations are performed in duplicate.
The regents were pre-incubated at 37±1° C. for 30 minutes. To determine the transport rate from apical to basolateral direction, 125 μL working solution (1 μM) was added to the Transwell insert (apical compartment), and 50 μL sample was immediately transferred from the apical compartment to a new 96-well plate as the initial donor sample (A-B) and mixed with 200 μL of acetonitrile or methanol containing IS. And 235 μL HBSS (10 mM HEPES, pH 7.4) was added to the receiver plate (basolateral compartment). To determine the transport rate from basolateral to apical direction, 285 μL working solution (1 μM) was added to the receiver plate (basolateral compartment), and 50 μL sample was immediately transferred from the basolateral compartment to a new 96-well plate as the initial donor sample (B-A) and mixed with 200 μL of acetonitrile or methanol containing IS. And 75 μL HBSS (10 mM HEPES, pH 7.4) was added to the Transwell insert (apical compartment). Then the plate was incubated at […] with 5% CO2 and 95% relative humidity for 120 minutes.
At the end of incubation, 50 μL samples from donor and receiver sides were transferred into a new 96-well plate. 200 μL of ice-cold acetonitrile or methanol containing appropriate internal standards (IS) was mixed with the samples. After vortex for 10 minutes, the samples are centrifuged at 3220 g for 40 minutes. An aliquot of 100 μL of the supernatant was mixed with appropriate volume of ultra-pure water and was analyzed by LC-MS/MS. All incubations are performed in duplicate.
The integrity of MDCKII cells were checked by Lucifer Yellow Rejection Assay after transport assay. The plate(s) were incubated with Lucifer Yellow solution at 37° C. for 30 minutes. The Lucifer Yellow fluorescence (to monitor monolayer integrity) was measured in a fluorescence plate reader at 480 nm excitation and 530 nm emission.
Test and reference compounds (metoprolol and digoxin) were semi-quantitatively analyzed, and the peak area ratio of the analyte and the internal standard was used to evaluate the concentration of the compounds.

[5] = target: HiBiT tagged Wee1 (Homo sapiens, UniProt P30291); assay: Wee1 protein degradation assay (HiBiT assay); format: cell-based; conditions: engineered HT-1080 cells, 20 hours; for Dmax: maximum percentage of Wee1 degradation, read-out: HiBiT Wee1: Dmax
Chain of HiBiT tagged Wee1 (P30291 whole entry): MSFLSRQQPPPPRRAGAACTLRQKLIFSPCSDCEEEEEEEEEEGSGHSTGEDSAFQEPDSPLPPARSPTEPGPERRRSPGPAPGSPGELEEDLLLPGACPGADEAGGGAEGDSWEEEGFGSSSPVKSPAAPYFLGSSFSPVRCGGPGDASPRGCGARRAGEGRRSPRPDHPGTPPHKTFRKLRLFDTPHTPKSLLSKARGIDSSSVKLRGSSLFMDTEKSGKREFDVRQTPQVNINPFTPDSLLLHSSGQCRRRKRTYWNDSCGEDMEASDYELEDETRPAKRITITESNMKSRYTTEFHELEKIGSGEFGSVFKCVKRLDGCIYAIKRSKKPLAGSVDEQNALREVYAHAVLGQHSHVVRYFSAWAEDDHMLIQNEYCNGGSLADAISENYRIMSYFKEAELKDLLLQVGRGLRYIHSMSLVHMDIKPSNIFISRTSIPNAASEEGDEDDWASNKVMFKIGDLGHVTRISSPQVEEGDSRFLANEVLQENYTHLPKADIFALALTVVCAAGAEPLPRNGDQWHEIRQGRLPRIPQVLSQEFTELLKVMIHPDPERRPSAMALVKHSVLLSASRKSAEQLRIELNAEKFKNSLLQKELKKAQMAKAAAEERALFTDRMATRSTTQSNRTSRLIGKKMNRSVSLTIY

[6] = pH 3.0, read-out: Kinetic solubility (μM) pH 3.0
[7] = pH 5.0, read-out: Kinetic solubility (μM) pH 5.0

SMILES	IC50 [1]	solubility kinetic at 2 h [2, 6]	solubility kinetic at 2 h [2, 7]	F [3]	AUC(0-inf) ([3]; IV (2 mg/kg))	clearance ([3]; IV (2 mg/kg))	half-life ([3]; IV (2 mg/kg))	AUC(0-inf) ([3]; PO (10 mg/kg))	Cmax ([3]; PO (10 mg/kg))	half-life ([3]; PO (10 mg/kg))	efflux ratio at 120 min, 1 μM [4]	Papp A→B at 120 min, 1 μM [4]	Papp B→A at 120 min, 1 μM [4]	DC50 [5]	Dmax [5]
C=CCn1c(=O)c2cnc(Nc3ccc(N4CCN(CC5CCN(c6ccc(NC7CCC(=O)NC7=O)cc6F)CC5)CC4)cc3)nc2n1-c1ccc2c(n1)[C@@](O)(CC)CC2 (mixture of isomers) [Compound 110]	≤ 25 nM	233 µM	132 µM	106%	10900 ng·h/mL	3.24 mL/min/kg	3.03 h	53200 ng·h/mL	4210 ng/mL	2.95 h	0.89	2.37 ×10⁻⁶ cm/s	2.11 ×10⁻⁶ cm/s	< 100 nM	> 75%
C=CCn1c(=O)c2cnc(Nc3ccc(N4CCC(CN5CCC(c6cccc7c6n(C)c(=O)n7C6CCC(=O)NC6=O)CC5)CC4)cc3)nc2n1-c1cccc(C(C)(C)O)n1 (centres unmarked) [Compound 55]	≤ 25 nM	194 µM (≈ 163 µg/mL)	55.7 µM (≈ 46.8 µg/mL)	38.9%	6980 ng·h/mL	4.78 mL/min/kg	5.7 h	13600 ng·h/mL	902 ng/mL	5.2 h	2.88	2.48 ×10⁻⁶ cm/s	7.09 ×10⁻⁶ cm/s	< 100 nM	50 to 75%
C=CCn1c(=O)c2cnc(Nc3ccc(N4CCC(CN(C)C5CCN(c6cccc7c6n(C)c(=O)n7C6CCC(=O)NC6=O)CC5)CC4)cc3)nc2n1-c1cccc(C(C)(C)O)n1 (centres unmarked) [Compound 61]	≤ 25 nM	299 µM (≈ 260 µg/mL)	203 µM (≈ 176 µg/mL)	–	–	–	–	–	–	–	–	–	–	< 100 nM	50 to 75%
C=CCn1c(=O)c2cnc(Nc3ccc(N4CCN(CC5CCN(c6cccc7c6n(C)c(=O)n7C6CCC(=O)NC6=O)CC5)CC4)cc3)nc2n1-c1cccc(C(C)(C)O)n1 (centres unmarked) [Compound 65]	≤ 25 nM	–	–	–	–	–	–	–	–	–	0.94	1.35 ×10⁻⁶ cm/s	1.27 ×10⁻⁶ cm/s	< 100 nM	50 to 75%
C=CCn1c(=O)c2cnc(Nc3ccc(C4CCN(CC5CCN(c6cccc7c6n(C)c(=O)n7C6CCC(=O)NC6=O)CC5)CC4)cc3)nc2n1-c1cccc(C(C)(C)O)n1 (centres unmarked) [Compound 66]	≤ 25 nM	252 µM (≈ 212 µg/mL)	148 µM (≈ 124 µg/mL)	23.6%	26700 ng·h/mL	1.25 mL/min/kg	7 h	31600 ng·h/mL	1880 ng/mL	7.2 h	–	–	–	< 100 nM	50 to 75%
